Earlier results, collected in patent US20250213572A1, “TYK2 INHIBITORS AND USES THEREOF” (Takeda Pharmaceutical Company Limited, priority 2022, published 2025).

Columns and labels:
[1] = test system: moderate-to-severe psoriasis; conditions: 30 mg twice-daily; at four weeks; cited from earlier work
psoriasis = conditions: dose ranges used in the Phase 3 trials; cited from earlier work
[2] = test system: moderate-to-severe ulcerative colitis; conditions: 6 mg once-daily; cited from earlier work

CCOc1cc([C@@H](CS(C)(=O)=O)N2C(=O)c3cccc(NC(C)=O)c3C2=O)ccc1OC [Otezla®]
mean PASI reduction [1]: 37%

guselkumab: an anti-IL-23 monoclonal antibody
increase of responses at 12 weeks compared to four weeks (psoriasis): three- to four-fold

deucravacitinib [reference compound]
primary endpoint of clinical remission at 12 weeks [2]: did not achieve its primary endpoint of clinical remission at 12 weeks
increase of responses at 12 weeks compared to four weeks (psoriasis): three- to four-fold
